Legend:
alpha6p = experiment: Abundance of alpha6p on DU145H cells with exogenous agents; type: cell-based, human; conditions: data not shown
[1] = system: alpha6p integrin protein levels; experiment: Calcium-induced terminal differentiation assay, Western blot with AA6A; type: cell-based; conditions: 291 nontransformed mouse keratinocytes, 24 h, dose-dependent (0.04 to 1.4 mM calcium)
Description: Cell Lines. All human cell lines were incubated at 37° C. in a humidified atmosphere of 95% air and 5% CO2. Cell lines DU145H, HaCaT, and PC3-N were grown in Iscove's modified Dulbecco's medium (Invitrogen Corporation, Carlsbad, Calif.; formerly Life Technologies, Inc.) plus 10% fetal bovine serum. Cell lines MCF-7, PC3-ATCC, LnCap, and H69 were grown in Dulbecco's modified Eagle's medium (Invitrogen Corporation, Carlsbad, Calif.; formerly Life Technologies, Inc.) plus 10% fetal bovine serum. SW480 cells were grown in super medium (Dulbecco's modified Eagle's medium plus 5% nonessential amino acids, 5% L-glutamine, 5% sodium pyruvate, 10% fetal bovine serum). Normal prostate cells, PrEC, were grown in PrEGM bullet kit medium (Clonetics, San Diego, Calif.). […]
Mouse 291 normal keratinocyte terminal differentiation can be induced by calcium. […] The presence of alpha6 and alpha6p integrins in normal 291 mouse keratinocytes was determined using whole cell lysates followed by Western blot analysis using anti-alpha6 integrin antibody, AA6A (FIG. 10A). […] The alpha6 and alpha6p integrin protein bands were quantitated using Scion Image (Cress (2000) BioTechniques 29:776-781), and the results were graphed (FIG. 10B). […]

DU145H cells = experiment: Surface half-life by biotinylation strategy; type: cell-based, human
Description: Surface Biotinylation of Cell Lines. Previous published protocols (Isberg and Leong (1990) Cell 60:861-871; Einheber et al. (1993) J. Cell Biol. 123:1223-1236) were slightly modified. Briefly, cells were grown to confluency in 100-mm tissue culture dishes and washed three times with HEPES buffer (20 mM HEPES, 130 mM NaCl, 5 mM KCl, 0.8 mM MgCl2, 1.0 mM CaCl2, pH 7.45). The cells were then incubated with 2 ml of HEPES buffer supplemented with sulfosuccinimidyl hexanoate-conjugated biotin (500 μg/ml; Pierce), which is impermeable to cell membranes (Staros (1982) Biochemistry 21:3950-3), to label cell surface proteins for 30 min at 4° C. The cells were washed three times and lysed in cold radioimmune precipitation buffer plus protease inhibitors (phenylmethylsulfonyl fluoride, 2 mM; leupeptin and aprotinin, 1 μg/ml). The lysate was briefly sonicated on ice before centrifugation at 10,000 rpm for 10 min, and the supernatant was collected for immunoprecipitations.
To determine if the novel alpha6p variant was a degradation product of the alpha6 integrin that would be rapidly cleared from the surface, the surface half-life of both integrins was examined using a biotinylation strategy. […] After 24, 48, or 72 h, the integrins were immunoprecipitated using the GoH3 antibody and analyzed under non-reducing conditions (FIG. 8, panel A).

Molecule	influence on abundance of alpha6p (alpha6p)	further results
aprotinin	not influenced	
CNC(=O)[C@H](Cc1ccccc1)NC(=O)[C@H](CC(C)C)[C@H](CSc1cccs1)C(=O)NO [BB94]	not influenced	
[Ca+2] [Calcium, calcium]		increase of alpha6p integrin protein levels [1]: 3 fold
CC(=O)N[C@@H](CC(C)C)C(=O)N[C@@H](CC(C)C)C(=O)N[C@H](C=O)CCCNC(=N)N [leupeptin]	not influenced	
kallikrein	not influenced	
ecotin: exogenous protease inhibitor	not influenced	
[Ca+2].[Cl-].[Cl-] [CaCl2]	not influenced	
CCCCCCCCCCCCCC(=O)O[C@@H]1[C@@H](C)[C@@]2(O)[C@@H](C=C(CO)C[C@]3(O)C(=O)C(C)=C[C@@H]23)[C@@H]2C(C)(C)[C@]12OC(C)=O [12-O-tetradecanoylphorbol-13-acetate]	not influenced	
alpha6p: 70-kDa, naturally occurring truncated form of the alpha6 integrin (protein) VNSLPEVLPILNSNEAKTVQTDVHFLKEGCGDDNVCNSNLKLEYKFGTREGNQDKFSYLPIQKGIPELVLKDQKDIALEITVTNSPSDPRNPRKDGDDAHEAKLIATFPDTLTYSAYRELRAFPEKQLSCVANQNGSQADCELGNPFKRNSSVTFYLILSTTEVTFDTTDLDINLKLETTSNQDNLAPITAKAKVVIELLLSVSGVAKPSQVYFGGTVVGEQAMKSEDEVGSLIEYEFRVINLGKPLKNLGTATLNIQWPKEISNGKWLLYLMKVESKGLEQIVCEPHNEINYLKLKESHNSRKKRELPEKQIDDSRKFSLFPERKYQTLNCSVNVRCVNIRCPLRGLDSKASLVLRSRLWNSTFLEEYSKLNYLDILLRASIDVTAAAQNIKLPHAGTQVRVTVFPSKTVAQYSGVAWWIILLAVLAGILMLALLVFLLWKCGFFKRSRYDDSIPRYHAVRIRKEEREIKDEKHMDNLEKKQWITKWNENESYS		surface half-life relative to full-length alpha6 integrin (DU145H cells; surface of DU145H cells): ~3 times; half-life on the cell surface (DU145H cells; surface of DU145H cells, 24, 48, 72 h after biotinylation): ~72 h

Source: US20030219837A1, “Integrin ligand” (priority 2002, published 2003)
